# Results: US20180177766A1, “THERAPEUTIC AGENT FOR NEUROTROPHIC KERATOPATHY” (SENJU PHARMACEUTICAL CO., LTD., priority 2015, published 2018)
# Legend:
# [1] = tested on: corneal sensitivity of rabbit cornea after corneal flap production; test: Decrease of corneal sensitivity after corneal flap production in rabbit (Cochet-Bonnet corneal esthesiometer); format: in vivo, Japanese white rabbit; details: 0.005% ophthalmic solution, 50 μL instillation 4 times per day for 17 days, compared with vehicle ophthalmic solution, FIG. 2 and FIG. 3
# Protocol: Male Japanese white rabbits (body weight 2.80-3.32 kg) purchased from KITAYAMA LABES Co., Ltd. were used. The animals were bred in a breeding room set to room temperature 23° C.±3° C., humidity 55%±10% RH, 12 hr lighting (08:00 lighting, 20:00 lights-out) from the arrival to the test end date. A solid feed (Labo R Stock, Nosan Corporation, 100-120 g/day) was given to the animals, and the animals were allowed to freely ingest tap water, passed through a sterilizer for animal drink, from an automatic-water supply apparatus. The test was performed on an approval from the animal care and use committee based on the Act on Welfare and Management of Animals (Act No. 105 of Oct. 1, 1973, final revision: Act No. 38 of Jun. 12, 2013) and the like.
# As a test substance, [3-[2-[4-isopropyl-2-(4-trifluoromethyl)phenyl-5-thiazolyl]ethyl]-5-methyl-1,2-benzisoxazol-6-yl]oxyacetic acid (hereinafter to be referred to as compound A) was used. […]
# Before production of corneal flap, the anterior ocular segment of the rabbits was macroscopically observed, and the rabbits showing no abnormality were selected. Then, using Cochet-Bonnet corneal esthesiometer (manufactured by LUNEAU), the corneal sensitivity at measurement locations 1 and 2 in FIG. 1 was measured, and the rabbits showing a corneal sensitivity threshold of not less than 15 mm at both measurement locations 1 and 2 were selected. […]
# [2] = tested on: corneal epithelial disorder in GK rats; test: Corneal epithelial disorder in spontaneously diabetic Goto-Kakizaki (GK) rat, fluorescein staining score; format: in vivo
# Protocol: Male GK rats (20 rats) (Wakuta M., et al., Invest. Ophthalmol. Vis. Sci. 2007 48 590-596) purchased from CLEA Japan, Inc. were used. Corneal epithelial disorders associated with neuropathy were found in GK rats (Wang F., et al., Am J Pathol. 2012 181 2058-2066). GK rats are originated from Wistar rats and therefore, Wistar rats were used as normal control group (7 rats). The animals were bred in a breeding room set to room temperature 23° C.±3° C., humidity 55%±10% RH, 12 hr lighting (08:00 lighting, 20:00 lights-out) from the arrival to the test end date. The animals were allowed to freely ingest a solid feed (Labo MR Stock, Nosan Corporation) and freely ingest tap water, passed through a sterilizer for animal drink, from an automatic-water supply apparatus. The test was performed on an approval from the animal care and use committee based on the Act on Welfare and Management of Animals (Act No. 105 of Oct. 1, 1973, final revision: Act No. 38 of Jun. 12, 2013) and the like.
# As a test substance, compound A was used. Compound A was dissolved in the vehicle (Table 2) to 0.005% and used as an ophthalmic solution. As a control group, a vehicle ophthalmic solution made solely of a vehicle (Table 2) and free of compound A was used.
# GK rats were assigned to three groups of compound A ophthalmic solution administration group (4 rats) and non-administration group and vehicle ophthalmic solution administration group (8 for each group) using a statistical analysis software (SAS clinical package ver. 5.0, SAS Institute Japan), such that mean blood glucose concentration and mean corneal epithelial disorder score measured before instillation administration were uniform.
# Compound A ophthalmic solution or vehicle ophthalmic solution was administered by instillation for 14 days. Instillation administration was performed 4 times per day at 10 μL/administration to both eyes with a micropipette. The administration was not performed on the non-administration group and Wistar rats.
# 0.1% Sodium fluoresceinate (Wako Pure Chemical Industries, Ltd.) (5 μL) was administered by instillation and fluorescein staining of the corneal epithelium was observed using a slit lamp, whereby the degree of corneal epithelial disorder was determined. To show the degree of abnormal findings in detail, one item was added to the diagnostic criteria of the McDonald-Shadduck method and used as the diagnostic criteria of the test (Table 3). The corneal epithelial disorder was scored for each of the three (upper, middle and lower) regions and the scores of the 3 regions were added up together. The corneal epithelial disorder was observed 2, 4, 6, 8, 11 and 15 days after the instillation administration.
# [3] = target: T1, PPARδ (Homo sapiens, UniProt Q03181); details: method described in Example 12 of WO 2003/033493; cited from earlier work
# T1 sequence (Q03181 1-441): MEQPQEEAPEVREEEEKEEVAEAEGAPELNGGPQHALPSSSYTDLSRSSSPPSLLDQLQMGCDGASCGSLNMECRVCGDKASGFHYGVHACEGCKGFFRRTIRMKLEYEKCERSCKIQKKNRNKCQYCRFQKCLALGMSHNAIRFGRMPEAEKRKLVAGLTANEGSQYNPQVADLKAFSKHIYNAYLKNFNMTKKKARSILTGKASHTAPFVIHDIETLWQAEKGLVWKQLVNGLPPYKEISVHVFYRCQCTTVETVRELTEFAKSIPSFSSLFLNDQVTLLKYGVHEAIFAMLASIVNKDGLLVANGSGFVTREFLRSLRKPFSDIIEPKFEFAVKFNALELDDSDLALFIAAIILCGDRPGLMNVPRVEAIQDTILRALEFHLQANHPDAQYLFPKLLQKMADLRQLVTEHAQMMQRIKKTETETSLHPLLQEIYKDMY
smiles,measurement,setting,value
"Cc1cc2c(CCc3sc(-c4ccc(C(F)(F)F)cc4)nc3C(C)C)noc2cc1OCC(=O)O [compound A, [3-[2-[4-isopropyl-2-(4-trifluoromethyl)phenyl-5-thiazolyl]ethyl]-5-methyl-1,2-benzisoxazol-6-yl]oxyacetic acid]",recovery of corneal sensitivity at measurement locations 1 and 2 after corneal flap production,[1],recovered faster
same,"corneal epithelial disorder, result in words","[2]; 0.005% ophthalmic solution for 14 days, compared with non-administration and vehicle groups",improved
same,corneal epithelial disorder score (sum of 3 regions),"[2]; 8 days after administration, 0.005% ophthalmic solution, 10 μL 4 times per day, both eyes",4.06 ± 0.20
same,corneal epithelial disorder score (sum of 3 regions),"[2]; 11 days after administration, 0.005% ophthalmic solution, 10 μL 4 times per day, both eyes",4.00 ± 0.13
same,corneal epithelial disorder score (sum of 3 regions),"[2]; 15 days after administration, 0.005% ophthalmic solution, 10 μL 4 times per day, both eyes",4.00 ± 0.13
same,corneal epithelial disorder score (sum of 3 regions),"[2]; before administration (baseline), mean ± spread",4.63 ± 0.33
same,PPARδ agonist activity,[3],confirmed to have a PPARδ agonist activity
